Reference: article PMC8348766, “Enhancement of Anti-Tumoral Immunity by β-Casomorphin-7 Inhibits Cancer Development and Metastasis of Colorectal Cancer” (International Journal of Molecular Sciences, 2021)
No end group written: not given here.

Columns and labels:
[1] = biological target: T1, CD10 (Homo sapiens, UniProt P08473); experiment: Suppression of CD10-mediated BCM degradation by thiorphan; type: biochemical; settings: TOP 1 μM in combination with CD10; 125I-labeled BCM 50 μg
[2] = cited from earlier work
Text: BCM also acts on the immune system. […] Conversely, BCM suppresses lymphocyte proliferation at low concentrations, but promotes it at high concentrations above 10^−7 M [18] by activating the T cell helper (Th)-2 pathway, which induces an inflammatory response in the gut. […] Therefore, under such physiological conditions, BCM presents only in low concentrations and might suppress the immune syst ... || The CD10 that we examined in this study has various alternative names, including membrane metalloendopeptidase, common acute lymphocytic leukemia antigen, neprilysin, neutral endopeptidase, enkephalinase, and atriopeptidase [NCBI, OMIM]. CD10 is known to degrade short peptides such as natriuretic peptides, angiotensin II, bradykinin, apelins, substance P, and adrenomedullin [38]. CD10 expression is widespread in the intestinal mucosa. Incubation of BCM with brush border of the intestinal mucosa degrades 95% of BCM in 24 h.

[3] = biological target: T1, CD10; experiment: Degradation of 125I-labeled BCM by CD10; type: in vitro ADME
Protocol: Figure 1 Effect of BCM on spleen cells and degradation of BCM by CD10. (A) Effect of BCM on subpopulations of spleen cells. Spleen cells of BALB/c mice were treated with BCM (0.1 μg/mL) for 48 h. Differentiation markers were examined by ELISA. (B) Effect of CD10 on degradation of BCM. ^125I-labeled BCM (50 μg) was incubated with CD10 for 16 h. Intact BCM bound to anti-BCM antibody and degraded peptides were separated with electrophoresis and detected by autoradiography. […] (E) Time course of degradation of BCM by CD10. ^125I-labeled BCM (50 μg) was incubated with CD10 (60 μg) and TOP (1 μM). (F) Effect of degraded BCM on subset of spleen cells. Error bar, standard deviation from three independent trials. BCM, β-casomorphin-7; cluster of differentiation; ELISA, enzyme-linked immunosorbent assay; Treg, regulatory T cell; tyr-pro, 1st and 2nd amino acids of BCM; Ab, anti-BCM antibody; TOP, thiorphan.
The N-terminal tyrosine of BCM was labeled with ^125I, and then treated with CD10, followed by treatment with an anti-BCM antibody and electrophoresis in a 15–25% polyacrylamide gel. […] It is considered that a short fragment of tyr-pro at the N-terminal of ^125I-labeled BCM was cleaved. […] In contrast, no decrease in intact BCM was observed when it was additionally treated with TOP. Of note, the CD10 degradation product of BCM had no effect on the lymphocyte subset (Figure 1F).
BCM was purchased from Sigma. Di-amino acid peptide (tyr-pro; 1st and 2nd amino acids of BCM) was synthesized by Peptide Institute Inc. (Ibaraki, Japan). BCM and the tyr-pro peptide were labeled by chloramine-T method with ^125I (J-RAM, Tokyo, Japan) using Pierce™ iodination beads (Thermo Fisher). Labeled BCM was incubated with CD10 in neutral peptidase assay buffer (40 mM Tris-HCl pH 7.1, 4 mM MgCl2, 0.5 mM ZnCl2) for 16 h. Thereafter, the solution was incubated with anti-BCM antibody (Abnova, Taipei City, Taiwan) at 37 °C for 2 h. […] The radioactivity of the solution was also measured by a fluid scintillation counter (LSC-8000, Hitachi, Tokyo, Japan).

T1 sequence (P08473 whole entry, species assumed): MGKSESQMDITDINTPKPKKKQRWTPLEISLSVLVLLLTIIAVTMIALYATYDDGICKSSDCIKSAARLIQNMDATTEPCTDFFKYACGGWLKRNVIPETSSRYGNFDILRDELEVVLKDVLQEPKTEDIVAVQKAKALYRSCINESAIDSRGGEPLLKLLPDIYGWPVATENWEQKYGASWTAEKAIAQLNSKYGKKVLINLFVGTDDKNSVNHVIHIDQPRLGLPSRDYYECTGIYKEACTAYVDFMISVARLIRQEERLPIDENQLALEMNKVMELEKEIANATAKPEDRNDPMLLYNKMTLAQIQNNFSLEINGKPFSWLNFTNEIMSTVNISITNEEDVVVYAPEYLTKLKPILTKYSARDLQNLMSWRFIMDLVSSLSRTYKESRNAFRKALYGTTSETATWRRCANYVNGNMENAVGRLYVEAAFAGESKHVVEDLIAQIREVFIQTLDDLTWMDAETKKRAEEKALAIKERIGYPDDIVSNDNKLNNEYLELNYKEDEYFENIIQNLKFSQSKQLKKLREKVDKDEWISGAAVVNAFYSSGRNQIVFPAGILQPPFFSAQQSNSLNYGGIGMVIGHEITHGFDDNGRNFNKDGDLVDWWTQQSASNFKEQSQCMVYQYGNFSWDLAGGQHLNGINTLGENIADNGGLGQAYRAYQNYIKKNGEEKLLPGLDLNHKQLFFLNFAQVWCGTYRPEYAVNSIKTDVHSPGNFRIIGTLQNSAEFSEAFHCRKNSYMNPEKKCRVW

| Compound | degradation of BCM by CD10 in presence of TOP [1] | fraction of BCM degraded on incubation with brush border of the intestinal mucosa ([2]; 24 h) | fraction of BCM degraded by digestive juice and jejunal brush border [2] | degraded fragment observed after CD10 treatment ([3]; 125I label on N-terminal tyrosine, position in polyacrylamide gel compared with labeled marker) | change in intact BCM over time with CD10 plus TOP ([3]; CD10 60 μg/mL + TOP 1 μM, time course, 125I-labeled BCM 50 μg) | time after which intact BCM completely disappeared ([3]; CD10 60 μg/mL, time course, 125I-labeled BCM 50 μg, Tris-HCl pH 7.1 buffer, electrophoresis, autoradiography) |
| --- | --- | --- | --- | --- | --- | --- |
| O=C(O)CNC(=O)C(CS)Cc1ccccc1 (stereo not drawn) [TOP, thiorphan] | completely suppressed |  |  |  |  |  |
| YPFPGPI [BCM, β-Casomorphin-7] |  | 95% | 95% | tyr-pro | no decrease | 24 h |
